The values below are quoted from earlier work in patent US20050159419A1, “Compositions of a cyclooxygenase-2 selective inhibitor and a central nervous system stimulant for the treatment of central nervous system damage” (Pharmacia Corporation, priority 2003, published 2005).

One data set has as its system human stroke victims. The settings on record: coupled with physical therapy, compared to stroke victims receiving only physical therapy.

With `CC(N)Cc1ccccc1` (centres unmarked) [amphetamine], in the data set on infarcted rats, the alternative circuit activation result is “promoted alternative circuit activation”. For the same molecule, in the data set on human stroke victims, the motor recovery entry was “accelerated motor recovery”.
